Experimental data as given in PMC9496151, “Expression and Function of ABC Transporters in Human Alveolar Epithelial Cells” (Biomolecules, 2022).
One block for each compound: values may come before it.

What was measured:
ABCG2/BCRP [1] = test: Bidirectional transport of Bodipy FL Prazosin (BCRP activity) in hAELVi; assay type: in vitro ADME, human
Procedure: (§1) The activity of ABC transporters was determined by measuring the apical-to-basolateral (AB) and basolateral-to-apical (BA) fluxes of specific substrates. To this aim, cell monolayers were washed twice in HBSS and equilibrated for 30 min in the same solution (pH 7.4, 37 °C). […] After 0, 30, 60, and 120 min, aliquots of the solution were collected from the opposite chamber (receiver chamber) and replaced with the same volume of HBSS. The fluxes were determined by reading fluorescence with an EnSpire® Multimode Plate Reader (Perkin Elmer), or radioactivity with MicroBeta^2 liquid scintillation spectrometer. The apparent permeability coefficient (Papp) was calculated from the data obtained.
(§2) Efflux ratio (ER) was calculated as the ratio between Papp measured for BA and AB fluxes, while uptake ratio (UR) was the ratio between Papp measured for AB and BA fluxes.

ABCG2/BCRP [2] = test: Bidirectional transport of Bodipy FL Prazosin (BCRP activity) in EpiAlveolar; assay type: in vitro ADME, human
Procedure: as §1, §2

MDR1 [3] = test: Bidirectional transport of Rhodamine123 (MDR1 activity) in EpiAlveolar; assay type: in vitro ADME, human
Procedure: as §1, §2

MDR1 [4] = test: Bidirectional transport of Rhodamine123 (MDR1 activity) in hAELVi; assay type: in vitro ADME, human
Procedure: as §1, §2

[5] = 10 µM PSC833, 1 µM Rhodamine123, AB and BA

Procedure for EpiAlveolar™: The paracellular and transcellular permeability of cell monolayers to solutes was assessed by monitoring the apical-to-basolateral fluxes of ^14C-mannitol and ^3H-propranolol, respectively. In detail, cell monolayers were washed and incubated for 30 min in Hank’s Balanced Salt Solution (HBSS, pH 7.4, 37 °C); HBSS containing ^14C-mannitol (1 µCi/mL, corresponding to 20 µM) or ^3H-propranolol (3 µCi/mL; 10 µM) was then added to the apical side. Aliquots of medium were collected from the basolateral compartment after 0, 30, 60, and 120 min and replaced with fresh HBSS; radioactivity in each sample was measured with a MicroBeta^2 liquid scintillation spectrometer (Perkin Elmer, Italy) and employed to calculate the apparent permeability coefficient (Papp).
The apparent permeability coefficient (Papp) of the tracer molecules was calculated according to the equation:Papp = (dQ⁄dt)⁄(A×C0×60) where dQ/dt is the transport rate of the tracer, A is the filter surface area, C0 is the initial concentration of the tracer in the donor chamber, and 60 is the conversion from minutes to seconds.

SMILES: COc1ccc2c3c([nH]c2c1)[C@H](CC(C)C)N1C(=O)[C@H](CCC(=O)OC(C)(C)C)NC(=O)[C@@H]1C3 [Ko143]
- inhibition of Bodipy™ FL Prazosin fluxes (ABCG2/BCRP [1]; 20 µM Ko143): no inhibition
- inhibition of Bodipy™ FL Prazosin fluxes (ABCG2/BCRP [2]; 20 µM Ko143): no inhibition

SMILES: Cc1nc(-c2ccc(OCC(C)C)c(C#N)c2)sc1C(=O)O [febuxostat]
- inhibition of Bodipy™ FL Prazosin fluxes (ABCG2/BCRP [1]; 50 µM Febuxostat): no inhibition
- inhibition of Bodipy™ FL Prazosin fluxes (ABCG2/BCRP [2]; 50 µM Febuxostat): no inhibition

SMILES: OC[C@@H](O)[C@@H](O)[C@H](O)[C@H](O)CO [mannitol]
- paracellular permeability (Papp), apical-to-basolateral flux (EpiAlveolar™): more permeable
- paracellular permeability (Papp), apical-to-basolateral flux (hAELVi): slight not significant difference

Other lines, results leading:

- effect of inhibitor on Papp of Rhodamine123 (MDR1 [3]; [5]): not modified
- effect of inhibitor on Papp of Rhodamine123 (MDR1 [4]; [5]): not modified
SMILES: C/C=C/C[C@@H](C)C(=O)[C@H]1C(=O)N[C@@H](C(C)C)C(=O)N(C)CC(=O)N(C)[C@@H](CC(C)C)C(=O)N[C@@H](C(C)C)C(=O)N(C)[C@@H](CC(C)C)C(=O)N[C@@H](C)C(=O)N[C@H](C)C(=O)N(C)[C@@H](CC(C)C)C(=O)N(C)[C@@H](CC(C)C)C(=O)N(C)[C@@H](C(C)C)C(=O)N1C [PSC833]

- Papp, AB versus BA fluxes (MDR1 [3]; 1 µM Rhodamine123): comparable for AB and BA fluxes
- efflux ratio (ER) versus uptake ratio (UR) (MDR1 [3]; 1 µM Rhodamine123): comparable values
- Papp, AB versus BA fluxes (MDR1 [4]; 1 µM Rhodamine123): comparable for AB and BA fluxes
- efflux ratio (ER) versus uptake ratio (UR) (MDR1 [4]; 1 µM Rhodamine123): comparable values
SMILES: COC(=O)c1ccccc1-c1c2ccc(=N)cc-2oc2cc(N)ccc12 [Rhodamine123]

- transcellular permeability (Papp), apical-to-basolateral flux (EpiAlveolar™): comparable permeability
- transcellular permeability (Papp), apical-to-basolateral flux (hAELVi): comparable permeability
SMILES: CC(C)NCC(O)COc1cccc2ccccc12 (centres unmarked) [propranolol]
